One compound from patent US10844052B2, “LLS compounds for treatment of cancer” (THE REGENTS OF THE UNIVERSITY OF CALIFORNIA, priority 2016, dated 2020) can be followed below.

Data set [1] relates to SKOV3. Kind of data set: Anti-cancer activity against ovarian cancer cells SKOV3 (cell killing in solution / in vitro cell proliferation). In kind it is cell-based.
The test system of data set [2] is PC3. Kind of data set: In vitro cell proliferation / killing assay on PC3 prostate cancer cells. In kind it is cell-based. Conditions: Homo sapiens, PC-3. The protocol: Biotinylated LLS2 was synthesized in solution and loaded it onto a streptavidin-coated plate. The biotinylated LLS2 immobilized on the plate killed approximately 21% of SKOV3 ovarian cancer cells at 100 μM loading, 16% at 50 μM and 14% at 25 μM (FIG. 4). The killing effect of the LLS2 compound was also tested in solution. […] In addition, LLS2 can kill pancreatic cancer cell line XPA3, prostate cancer cell line PC3, colon cancer cell line HT29, breast cancer cell line MCF7 and lung cancer cell line A549 (FIG. 4).

Data set [3] deals with PC3 prostate cancer cells. Kind of data set: Cell viability of prostate cancer PC3 cells after 72 hours treatment. The settings on record: Homo sapiens. In kind it is cell-based. The protocol:
Effects of compounds LLS42-LLS80 on the viability of PC3 prostate cancer cells after 72 hours of treatment are shown in Table 2 below: […]

The test system of data set [4] is 22RV1 prostate cancer cells. Kind of data set: Cell viability of prostate cancer 22RV1 cells after 72 hours treatment. The class given is cell-based. The settings on record: Homo sapiens.
The test system of data set [5] is PC3 tumor. Kind of data set: In vivo efficacy study of LLS30 on PC3 tumor.
Data set [6] concerns sNF96.2 malignant peripheral nerve sheath tumor (MPNST) cells. Kind of data set: Cytotoxicity against sNF96.2 MPNST cells. In kind it is cell-based. The protocol:
(§1) The biochemical and biological effects of LLS30 on sNF96.2 and sNF2.2 malignant peripheral nerve sheath tumor (MPNST) cells were evaluated.

The subject of data set [7] is sNF2.2 malignant peripheral nerve sheath tumor (MPNST) cells. Kind of data set: Cytotoxicity and PTX combination on sNF2.2 MPNST cells. In kind it is cell-based. As to the method:
as §1

The subject of data set [8] is ERK phosphorylation. Kind of data set: Phosphorylation of ERK / MEK/ERK pathway in MPNST cells. In kind it is cell-based. As to the method: (b) LLS30 exerts death on MPNST cells.
as §1

Data set [9] is described as follows: Combination of LLS30 with Enzalutamide. In kind it is cell-based.

On to `NC(=O)CC(NCc1ccc(Cl)c(Cl)c1)c1ccc2c(c1)nc(-c1ccc(N(CCO)CCO)cc1)n2Cc1ccc(Cl)c(Cl)c1` (stereo not shown) [LLS30, 3-(2-(4-(bis(2-hydroxyethyl)amino)phenyl)-1-(3,4-dichlorobenzyl)-1H-benzo[d]imidazol-5-yl)-3-((3,4-dichlorobenzyl)amino)propanamide], for which the IC50 in data set [1] (Homo sapiens, SK-OV-3, ovarian cancer cells SKOV3) was found to be 10.2 µM; in [2] it was 9.2 µM; in data set [6], 16 µM; in data set [7], 26 µM. In [1] (in vitro cell proliferation assays), the “potency relative to LLS2” value was “about 2 fold”. Further, the viability at 2.5 µM in data set [3] (PC-3, 2.5 μM) is 100%; in data set [4] (2.5 μM), 47%. Also, the viability at 5 µM in data set [3] (PC-3, 5 μM) amounted to 95%; in data set [4] (5 μM), 3%. For the same compound, the viability at 10 µM stood at 73% in data set [3] (PC-3, 10 μM) and 0% in data set [4] (10 μM). For the same compound, in data set [3] (PC-3, 20 μM), the viability at 20 µM amounted to 10%. In addition, the “growth of PC3 tumor” value in data set [5] (10 mg/kg, i.v. q3d×4) is “significantly suppressed”. For the same compound, the Ki-67 in tumor entry in data set [5] (LLS30-treated tumor) was “down-regulated”. The “cleaved caspase-3 in tumor” value in data set [5] (LLS30-treated tumor) is recorded as “more cleaved caspase-3 positive cells”. Moreover, in [5] (LLS30 with PTX, i.v. q3d×4), the “PC3 tumor response, combination with PTX” value is listed as “tumor regression”. Also, the “CBC, platelets, liver function tests and renal panel” value in [5] (after 4 courses of treatment) is “remained within normal limits”. For the same compound, the “histological analysis of the resected tumor” value in data set [5] (necrotic cells) is given as “many necrotic cells were present”. Besides, the “C.I. (combination index) with PTX” value in data set [7] (LLS30 with PTX) was found to be 0.1. In data set [8] (2 μM, MPNST cells (FIG. 12 legend)), the MEK/ERK pathway result was “suppresses”. In addition, the “Phosphorylation of ERK” value in [8] (24 hrs treatment, 25 μM, MPNST cells) was “totally suppressed”. The “anti-cancer effect in combination with Enzalutamide” value in data set [9] is on record as “synergistic anti-cancer effect”.
